Experimental data: PubChem BioAssay (NCI)
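Cells were grown in 96-well plates and exposed to each compound for 48 hours at five concentrations; endpoints were interpolated linearly between bracketing concentrations, or set to the highest concentration if not reached. GI50 is the concentration that inhibits growth by half. TGI: concentration producing complete growth inhibition.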

Columns and labels:
Assay in all cases: growth of human tumour cells (NCI), 48 h
SK-MEL-28 melanoma = test system: SK-MEL-28 melanoma
NCI-H522 lung = test system: NCI-H522 lung
UACC-257 melanoma = test system: UACC-257 melanoma
SK-MEL-5 melanoma = test system: SK-MEL-5 melanoma
SN12C renal = test system: SN12C renal
MDA-MB-231 breast = test system: MDA-MB-231 breast
LOX IMVI melanoma = test system: LOX IMVI melanoma
NCI-H226 lung = test system: NCI-H226 lung
OVCAR-8 ovarian = test system: OVCAR-8 ovarian
RXF 393 renal = test system: RXF 393 renal

Structure (SMILES) | GI50 (SK-MEL-28 melanoma) [µM] | TGI (SK-MEL-28 melanoma) [µM] | GI50 (NCI-H522 lung) [µM] | TGI (NCI-H522 lung) [µM] | GI50 (UACC-257 melanoma) [µM] | TGI (UACC-257 melanoma) [µM] | GI50 (SK-MEL-5 melanoma) [µM] | TGI (SK-MEL-5 melanoma) [µM] | GI50 (SN12C renal) [µM] | TGI (SN12C renal) [µM] | GI50 (MDA-MB-231 breast) [µM] | TGI (MDA-MB-231 breast) [µM] | GI50 (LOX IMVI melanoma) [µM] | TGI (LOX IMVI melanoma) [µM] | TGI (NCI-H226 lung) [µM] | TGI (OVCAR-8 ovarian) [µM] | TGI (RXF 393 renal) [µM] | GI50 (NCI-H226 lung) [µM] | GI50 (OVCAR-8 ovarian) [µM] | GI50 (RXF 393 renal) [µM]
COc1ccc2c(OCc3nnc4ccc(-c5ccccc5)nn34)ccnc2c1 | > 100 | > 100 | 20.1 | > 43.8 | > 100 | > 100 | > 100 | > 100 | > 100 | > 100 | > 20.3 | > 100 | > 100 | > 100 | – | – | – | – | – | –
O=C(CCc1ccccc1)ON1C(=S)C(c2ccccc2)(c2ccccc2)N=C1Sc1ccccc1 | – | – | – | – | – | > 100 | – | > 100 | – | > 100 | – | > 100 | – | 42.4 | > 100 | > 100 | > 100 | – | – | –
CCOC(=O)C1=COC(C)(CCc2ccccc2)CC1=O (stereo not drawn) | – | > 100 | – | 89.8 | – | > 100 | – | > 100 | – | > 100 | – | > 100 | – | – | – | > 100 | > 100 | – | – | –
CCN(CC)c1ccc2cc(C(=O)Nc3ccccn3)c(=N)oc2c1 | – | > 100 | – | – | – | > 100 | – | > 100 | – | > 100 | – | > 100 | – | > 100 | > 100 | > 100 | > 100 | – | – | –
O=C1Nc2ccccc2Nc2ccncc21 | – | > 100 | – | > 100 | – | > 100 | – | > 100 | – | > 31.6 | – | – | – | > 100 | > 100 | > 100 | > 100 | – | – | –
CC(=O)[CH-]C(=O)c1ccccc1.CC(=O)[CH-]C(=O)c1ccccc1.C[C@]12CCC(=O)C=C1CC[C@@H]1C2CC[C@@]2(C)C1CC[C@]2(C)[O-].C[C@]12CCC(=O)C=C1CC[C@@H]1C2CC[C@@]2(C)C1CC[C@]2(C)[O-].Cl.[Ti+4] (stereo partly drawn) | 11.5 | 43 | 11.4 | 35.7 | 18 | 51.7 | – | – | 18.7 | 49.5 | – | – | 18.6 | 48.8 | 56.1 | 77.5 | – | 14.4 | 20.4 | –
COc1cccc(/C=N/[N-]C(N)=O)c1[O-].[Cu+2].[OH3+].c1ccc(-c2ccccn2)nc1 | – | 41.2 | – | 28.4 | – | > 100 | – | 31.6 | – | > 96.8 | – | – | – | > 81.3 | 88.1 | > 100 | 40.8 | – | – | –
Cc1nc2ccccc2c(/C=C/c2ccc(Cl)cc2)c1C(=O)/C=C/c1ccc(Cl)cc1 | 1.67 | 3.12 | 1.25 | 4.77 | – | – | 1.62 | 3 | – | – | – | – | 1.22 | 2.55 | 3.29 | – | 3 | 1.59 | – | 1.52
COc1ccc2oc(=O)c(-c3csc(C)n3)cc2c1 | – | > 100 | – | – | – | > 100 | – | > 100 | – | > 100 | – | 68 | – | > 100 | 89.1 | – | > 100 | – | – | –
CC(C)C1N(C)c2ccc(Cl)cc2[C@H]2c3ccccc3CCN12 (stereo partly drawn) | – | > 100 | – | 88.2 | – | 90.3 | – | – | – | > 100 | – | 96.2 | – | 55.7 | 67.9 | > 100 | > 100 | – | – | –
CC(C)(C)OC(=O)NCCCCC(NC(=O)c1ccccc1)C(N)=O (stereo not drawn) | – | > 100 | – | > 100 | – | > 100 | – | > 100 | – | > 100 | – | > 100 | – | > 100 | – | > 100 | > 100 | – | – | –
COc1ccccc1C[C@@H]1OC2(C=CC(=O)C=C2)O[C@H]1Cc1ccccc1OC | – | 16.1 | – | – | – | 16.1 | – | 16.1 | – | 23.4 | – | 38.6 | – | 13.8 | 16.8 | 3.46 | 3.81 | – | – | –
CC1C(c2ccc(Cl)cc2)c2cc3c(cc2OC1N1CCOCC1)OCO3 (stereo not drawn) | – | > 100 | – | > 100 | – | > 100 | – | > 100 | – | > 100 | – | – | – | > 100 | – | > 100 | – | – | – | –
CCc1ccccc1NNc1cc(=O)[nH]c(=O)[nH]1 | – | 38 | – | – | – | 35.9 | – | 32.4 | – | 39 | – | 32.3 | – | 29.4 | 35 | 51.6 | 40.1 | – | – | –
CCOC(=O)Cc1nc2c(N)ncnc2n1C1OC(COC(C)=O)C(OC(C)=O)C1OC(C)=O (stereo not drawn) | – | > 100 | – | > 100 | – | > 100 | – | > 100 | – | > 100 | – | > 100 | – | > 100 | > 100 | > 100 | – | – | – | –
Cc1ccccc1NC(=O)Cc1csc2[n+]1C(=O)/C(=C/c1ccc([N+](=O)[O-])cc1)S2 | – | > 100 | – | – | – | > 100 | – | > 100 | – | > 100 | – | > 100 | – | > 100 | > 100 | > 100 | – | – | – | –
Cc1nc2c(=S)n(C)ncc2[nH]1 | – | > 100 | – | > 100 | – | > 100 | – | > 100 | – | > 100 | – | > 100 | – | > 100 | > 100 | > 100 | – | – | – | –
NNC(=O)c1cc(=O)[nH][nH]1 | – | – | – | > 100 | – | > 100 | – | > 100 | – | > 100 | – | > 100 | – | – | > 100 | > 100 | > 100 | – | – | –
CC(=O)Oc1ccc(/C=C/C(=O)O[C@@H](C(=O)O)[C@@H](OC(=O)/C=C/c2ccc(OC(C)=O)c(OC(C)=O)c2)C(=O)O)cc1OC(C)=O | – | > 100 | – | > 100 | – | > 100 | – | > 100 | – | > 100 | – | > 100 | – | > 100 | – | > 100 | > 100 | – | – | –
C[C@H](C/C=C/C(C)(C)O)[C@H]1CC[C@@]2(C)[C@@H]3CC[C@H]4C(C)(C)[C@@H](O)CC[C@@]45C[C@@]35CC[C@]12C | – | 37.8 | – | 15.4 | – | 33.2 | – | – | – | 27.9 | – | 33.2 | – | 29.4 | 38.5 | 33.4 | – | – | – | –
CCN(CC)c1ccc(/C=C/C=C2C(=O)NC(=S)NC2=O)cc1 | – | > 100 | – | – | – | > 100 | – | > 100 | – | > 100 | – | > 78.6 | – | > 100 | 99 | 42.4 | 45.2 | – | – | –
CN(C)c1cc[n+](-c2nc(/N=C(\[O-])C(F)(F)F)nc3c2ncn3C2CC(O)C(CO)O2)cc1 (stereo not drawn) | – | > 100 | – | > 100 | – | – | – | > 100 | – | > 100 | – | > 100 | – | > 100 | > 100 | > 100 | > 100 | – | – | –
